# Results taken from PubChem BioAssay (NCI).
#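 1) Cells in 96-well plates. 2) Compound, 48 h, 5 concentrations. 3) Linear interpolation between surrounding doses. 4) Unreached endpoint = highest concentration. At the TGI there is no net growth.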
# Experiments:
# Assay in all cases: DTP human tumour cell line panel, 48 h
# [1] = tested on: SNB-19 CNS
# [2] = tested on: IGROV1 ovarian
# [3] = tested on: OVCAR-4 ovarian
# [4] = tested on: NCI-H460 lung
# [5] = tested on: LOX IMVI melanoma
# [6] = tested on: OVCAR-8 ovarian
# [7] = tested on: NCI/ADR-RES ovarian
# [8] = tested on: NCI-H23 lung
# [9] = tested on: HOP-92 NSCLC
# [10] = tested on: EKVX NSCLC
# [11] = tested on: SK-MEL-5 melanoma
# [12] = tested on: SW-620 colon
# [13] = tested on: CAKI-1 renal
# [14] = tested on: CCRF-CEM leukemia
# [15] = tested on: T-47D breast
# [16] = tested on: MDA-N
# [17] = tested on: HL-60(TB) leukemia
# [18] = tested on: ACHN renal
# [19] = tested on: MCF7 breast
# [20] = tested on: COLO 205 colon
# [21] = tested on: SN12C renal
# [22] = tested on: SF-539 CNS
# [23] = tested on: SNB-75 CNS
# [24] = tested on: 786-0 renal
# [25] = tested on: HCT-15 colon
# [26] = tested on: UACC-62 melanoma
# [27] = tested on: HCT-116 colon
# [28] = tested on: NCI-H522 lung
# [29] = tested on: RPMI-8226 leukemia
# [30] = tested on: A549 NSCLC
# [31] = tested on: M14 melanoma
# [32] = tested on: HOP-62 NSCLC
# [33] = tested on: DU-145 prostate
# [34] = tested on: U251 CNS
# [35] = tested on: TK-10 renal
# [36] = tested on: SK-MEL-28 melanoma
# [37] = tested on: RXF 393 renal
# [38] = tested on: BT-549 breast
# [39] = tested on: OVCAR-5 ovarian
# [40] = tested on: SF-295 CNS
# [41] = tested on: MOLT-4 leukemia
# [42] = tested on: HT29 colon
# [43] = tested on: MDA-MB-231 breast
# [44] = tested on: MALME-3M melanoma
# [45] = tested on: NCI-H226 lung
# [46] = tested on: KM12 colon
# [47] = tested on: UO-31 renal
# [48] = tested on: OVCAR-3 ovarian
# [49] = tested on: SK-MEL-2 melanoma
# [50] = tested on: A498 renal
# [51] = tested on: SK-OV-3 ovarian
# [52] = tested on: PC-3 prostate
# [53] = tested on: SF-268 CNS
# [54] = tested on: MDA-MB-435
# [55] = tested on: HS 578T breast
# [56] = tested on: SR leukemia
# [57] = tested on: K-562 leukemia
# [58] = tested on: UACC-257 melanoma
structure (smiles),measurement,setting,value
NC(=O)C1CCCNC1 (stereo unspecified),TGI,[1],> 100 µM
same,TGI,[2],> 100 µM
same,TGI,[3],> 100 µM
same,TGI,[4],> 100 µM
same,TGI,[5],> 100 µM
same,TGI,[6],> 100 µM
same,TGI,[7],> 100 µM
same,TGI,[8],> 100 µM
same,TGI,[9],> 100 µM
same,TGI,[10],> 100 µM
same,TGI,[11],> 100 µM
same,TGI,[12],> 100 µM
same,TGI,[13],> 100 µM
same,TGI,[14],> 100 µM
same,TGI,[15],> 100 µM
same,TGI,[16],> 100 µM
same,TGI,[17],> 100 µM
same,TGI,[18],> 100 µM
same,TGI,[19],> 100 µM
same,TGI,[20],> 100 µM
same,TGI,[21],> 100 µM
same,TGI,[22],> 100 µM
same,TGI,[23],> 100 µM
same,TGI,[24],> 100 µM
same,TGI,[25],> 100 µM
same,TGI,[26],> 100 µM
same,TGI,[27],> 100 µM
same,TGI,[28],> 100 µM
same,TGI,[29],> 100 µM
same,TGI,[30],> 100 µM
same,TGI,[31],> 100 µM
same,TGI,[32],> 100 µM
same,TGI,[33],> 100 µM
same,TGI,[34],> 100 µM
same,TGI,[35],> 100 µM
same,TGI,[36],> 100 µM
same,TGI,[37],> 100 µM
same,TGI,[38],> 100 µM
same,TGI,[39],> 100 µM
same,TGI,[40],> 100 µM
same,TGI,[41],> 100 µM
same,TGI,[42],> 100 µM
same,TGI,[43],> 100 µM
same,TGI,[44],> 100 µM
same,TGI,[45],> 100 µM
same,TGI,[46],> 100 µM
same,TGI,[47],> 100 µM
same,TGI,[48],> 100 µM
same,TGI,[49],> 100 µM
same,TGI,[50],> 100 µM
same,TGI,[51],> 100 µM
same,TGI,[52],> 100 µM
same,TGI,[53],> 100 µM
same,TGI,[54],> 100 µM
same,TGI,[55],> 100 µM
same,TGI,[56],> 100 µM
O=C(O)C1(Nc2ccc(Cl)cc2)CCCC1,TGI,[1],> 100 µM
same,TGI,[57],> 100 µM
same,TGI,[2],> 100 µM
same,TGI,[3],> 100 µM
same,TGI,[4],> 100 µM
same,TGI,[5],> 100 µM
same,TGI,[6],> 100 µM
same,TGI,[7],> 100 µM
same,TGI,[8],> 100 µM
same,TGI,[9],> 100 µM
same,TGI,[10],> 100 µM
same,TGI,[11],> 100 µM
same,TGI,[12],> 100 µM
same,TGI,[13],> 100 µM
same,TGI,[14],> 100 µM
same,TGI,[15],> 100 µM
same,TGI,[16],> 100 µM
same,TGI,[17],> 100 µM
same,TGI,[18],> 100 µM
same,TGI,[19],> 100 µM
same,TGI,[20],> 100 µM
same,TGI,[21],> 100 µM
same,TGI,[23],> 100 µM
same,TGI,[24],> 100 µM
same,TGI,[25],> 100 µM
same,TGI,[26],> 100 µM
same,TGI,[27],> 100 µM
same,TGI,[28],> 100 µM
same,TGI,[29],> 100 µM
same,TGI,[30],> 100 µM
same,TGI,[31],> 100 µM
same,TGI,[32],> 100 µM
same,TGI,[33],> 100 µM
same,TGI,[34],> 100 µM
same,TGI,[35],> 100 µM
same,TGI,[36],> 100 µM
same,TGI,[37],> 100 µM
same,TGI,[38],> 100 µM
same,TGI,[39],> 100 µM
same,TGI,[40],> 100 µM
same,TGI,[42],> 100 µM
same,TGI,[43],> 100 µM
same,TGI,[44],> 100 µM
same,TGI,[45],> 100 µM
same,TGI,[46],> 100 µM
same,TGI,[47],> 100 µM
same,TGI,[48],> 100 µM
same,TGI,[49],> 100 µM
same,TGI,[50],> 100 µM
same,TGI,[51],> 100 µM
same,TGI,[52],> 100 µM
same,TGI,[53],> 100 µM
same,TGI,[54],> 100 µM
same,TGI,[55],> 100 µM
same,TGI,[56],> 100 µM
CCOC(=O)CNC(=O)C(CSCC1C(=O)Nc2ccccc21)NC(=O)CCC(N)C(=O)OCC (stereo unspecified),TGI,[1],20 µM
same,TGI,[57],0.948 µM
same,TGI,[2],2.83 µM
same,TGI,[3],9.11 µM
same,TGI,[4],20.9 µM
same,TGI,[5],1.64 µM
same,TGI,[6],11.4 µM
same,TGI,[7],3.02 µM
same,TGI,[8],5.62 µM
same,TGI,[9],5.03 µM
same,TGI,[10],4.47 µM
same,TGI,[11],3.26 µM
same,TGI,[12],2.73 µM
same,TGI,[13],2.4 µM
same,TGI,[14],0.79 µM
same,TGI,[15],> 100 µM
same,TGI,[16],5.01 µM
same,TGI,[17],4.7 µM
same,TGI,[18],3.74 µM
same,TGI,[19],3.46 µM
same,TGI,[20],2.54 µM
same,TGI,[21],3.64 µM
same,TGI,[22],0.608 µM
same,TGI,[58],14.3 µM
same,TGI,[24],4.28 µM
same,TGI,[25],2.53 µM
same,TGI,[26],2.92 µM
same,TGI,[27],2.97 µM
same,TGI,[28],3.59 µM
same,TGI,[29],3.09 µM
same,TGI,[30],6.63 µM
same,TGI,[31],4.01 µM
same,TGI,[32],4.99 µM
same,TGI,[33],34.4 µM
same,TGI,[34],2.73 µM
same,TGI,[35],5.14 µM
same,TGI,[36],3.59 µM
same,TGI,[37],2.72 µM
same,TGI,[38],7.14 µM
same,TGI,[39],3.65 µM
same,TGI,[40],6.31 µM
same,TGI,[42],3.02 µM
same,TGI,[43],3.48 µM
same,TGI,[44],4.89 µM
same,TGI,[45],5.44 µM
same,TGI,[46],8.33 µM
same,TGI,[47],2.74 µM
same,TGI,[48],5.65 µM
same,TGI,[49],4.51 µM
same,TGI,[50],8.19 µM
same,TGI,[52],4.9 µM
same,TGI,[53],6.44 µM
same,TGI,[54],3.19 µM
same,TGI,[55],17.6 µM
same,TGI,[56],0.546 µM
